Source: a melting point compilation (Tetko et al.)

Structure (SMILES) | melting point [°C]
C/C(=N\Cc1cccnc1)c1c(O)c2ccccc2n(-c2ccccc2)c1=O | 221 to 222
CNc1ccccc1C(=O)O | 180
CCCN(CCC)c1c([N+](=O)[O-])cc(S(N)(=O)=O)cc1[N+](=O)[O-] | 141
CC(=O)N(C(C)=O)c1cc([N+](=O)[O-])c(/C=C/c2ccccc2)c([N+](=O)[O-])c1/C=C/c1ccccc1 | 175
S=C=Nc1ccccc1Br | 20
Cc1cc(C(C)(C)c2ccc(O)c(C)c2)ccc1O | 139
C/C=C/C1Nn2c(nnc2-c2ccccc2OC)S1 (stereo unspecified) | 124 to 126
O=C(O)/C=C/c1ccc(F)c(F)c1 | 193 to 198
COC(=O)Nc1nc2ccc(C(=O)c3ccccc3)cc2[nH]1 | 288
NC(Cc1n[nH]c2ccccc12)C(=O)O (stereo unspecified) | 240
Cc1cc(C)c(C2Oc3c(Cl)c(Cl)c(Cl)c(Cl)c3O2)cc1C | 188
Cc1ccc(C(=O)C=Cc2ccc(-c3ccccc3)o2)o1 | 122 to 123
O=[N+]([O-])c1ccc(-c2ccc([N+](=O)[O-])cc2Cl)cc1 | 144 to 146
CC1(C)C=[N+]([O-])C(C)(C)C=[N+]1[O-] | 298 to 300
N#CC1=C(N)Oc2c(c(C(F)(F)F)nn2-c2ccccc2)C1c1ccc(O)cc1 (stereo unspecified) | 218
Cc1ccc(N)cc1[N+](=O)[O-] | 76.5
CCOC(CN)OCC | -78
O=Cc1cccc2ncccc12 | 96
O=C(Cl)/C=C/c1ccc(/C=C/C(=O)Cl)cc1 | 171
Cc1ccc(N)cc1NS(C)(=O)=O | 170 to 172
CC(C)(C)OC(=O)N1CCSCC1C(=O)O (stereo unspecified) | 145 to 147
O=C(O)c1cncc(-c2ccco2)c1 | 261 to 263
Nc1cc(C(F)(F)F)ccc1N1CCOCC1 | 135 to 137
CCCc1c(C)nc(NC(=O)NS(=O)(=O)c2cccs2)nc1O | 210 to 212
CCCCCOC(=O)COc1cc(N2C(=O)C3=C(CCCC3)C2=O)c(F)cc1Cl | 89
O=Cc1ccc(-c2cccc(C(=O)O)c2)cc1 | 166

Structure (SMILES) | melting point [°C]
CCC(Oc1ccccc1)C(=O)O (stereo unspecified) | 81
CCOc1cc(NC(=O)c2ccccc2)c(OCC)cc1N | 98 to 100
C[Si](C)(C)[Si]([Si](C)(C)C)([Si](C)(C)C)[Si](C)(C)C | 267
O=C(O)COCCN1C(=O)c2ccccc2C1=O | 128
O=[N+]([O-])c1cccc2cccc(/C=N\c3ccccc3)c12 | 114 to 115
Cc1ccc(C=CC(=O)O)cc1 | 198 to 201
COc1ccc(OC)c(NC(N)=S)c1 | 160
CCCCCCCCCCCCCCCCI | 22
CC1(C)OC(=O)C2(Cc3ccccc3C2)C(=O)O1 | 158
CCOC(=O)c1cc(-c2ccco2)nn1C | 57 to 58
CC(=O)Nc1cc(C)ccc1O | 151 to 153
COc1ccc(C2C3=C(CCCC3)OC3=C2CCCC3)cc1 | 104
CCOC(=O)C(C#N)=C(N)c1cc2cc(Br)cc(OC)c2oc1=O | 274 to 276
CCOC(=O)c1ccc(NC)c(N)c1 | 87 to 88
Cc1ccc(C(=O)C=Cc2cccc([N+](=O)[O-])c2)cc1 | 134 to 137
O=C1COCC(=O)O1 | 90 to 95
Cc1c(C(C)OC(=O)CCC(=O)O)oc2ccc(C3=CC(=O)OC3)cc12 (stereo unspecified) | 144
O/N=C(\Cc1ccccc1)c1ccc2c3c(cccc13)CC2 | 138
O=CCO | 97
O=Cc1ccnc(Cl)c1 | 47.5
CC(=O)Nc1ccccc1CCNC(=O)c1ccc2ccccc2c1O | 225 to 227
COC(=O)c1cc(OC)c(C)c(OC)c1 | 104
OCC(O)CN1CCN(c2ccccc2)CC1 (stereo unspecified) | 105
Nc1cc2c(cc1Cl)C(=O)c1ccccc1C2=O | 282
CC(=O)NC1=NC(=O)C(=Cc2cc(=O)c3ccccc3o2)N1C | 244 to 246
Clc1ccc(Cl)c(-c2nnn[nH]2)c1 | 157

Structure (SMILES) | melting point [°C]
Nc1ccnc(N)c1 | 107
CC(C=CC=C(C)C(=O)O)=CC=CC=C(C)C=CC=C(C)C(=O)O | 286
CC(C)(C)OC(=O)N1CCN(c2ccccc2C(=O)O)CC1 | 165 to 166
Cc1cc(Oc2ccc(C(F)(F)F)cc2[N+](=O)[O-])ccc1Cl | 57 to 59
CSc1nc(-c2ccc(C)cc2)nc(N)c1C#N | 213 to 214
Cc1onc(-c2c(Cl)cccc2Cl)c1C=O | 100 to 103
CC1(/C(=N\Nc2ccc([N+](=O)[O-])cc2[N+](=O)[O-])C(=O)O)CCC(C(=O)O)C1(C)C (stereo unspecified) | 191
CSC(=CC(=C(C#N)C#N)c1ccccc1)SC | 117 to 121
O=[N+]([O-])c1ccc(-c2nc3n(c2[N+](=O)[O-])CCS3)cc1 | 203 to 205
CS(=O)(=O)CN1C(=O)NC(c2ccccc2)(c2ccccc2)C1=O | 196 to 197
CC(C)OC(=O)C(C(=O)OC(C)C)=C1SCCS1 | 54.9
O=C(O)C(F)(F)C(F)(F)C(F)(F)C(F)(F)C(F)(F)C(F)(F)C(F)(F)C(F)(F)C(F)(F)C(F)(F)F | 97.9 to 100
c1ncncn1 | 86
CC1(C(=O)O)CCC2(C)CCC3(C)C(=CC(=O)C4C5(C)CCC(OC(=O)CCC(=O)O)C(C)(C)C5CCC43C)C2C1 (stereo unspecified) | 292
c1ccc(C2Cc3ccccc32)nc1 (stereo unspecified) | 35 to 44
COC(=O)Oc1c(F)c(F)c(F)c(F)c1F | 29
CC(Cl)CCl (stereo unspecified) | -100
CCCN(CCC)C(=O)COC(=O)c1ccccc1 | 20
CC(NC(=O)COC(=O)c1ccccc1)C(N)=O (stereo unspecified) | 202
O=C(O)c1ccc[nH]c1=S | 270
C[Si](C)(C)OC1(C#Cc2ccccc2)Cc2ccccc21 (stereo unspecified) | 64
CCCc1cccc(C)c1 | -82.5
C/C(=N\O)c1cc(C(C)(C)C)c(O)c(C(C)(C)C)c1 | 200 to 201
CC(=O)Oc1ccc2cc(OC(C)=O)ccc2c1 | 215
COc1c(Br)c(C)c(Br)c(Br)c1OC | 90
CCOC(=O)c1cc(-c2cccs2)nn1C | 72 to 73

Structure (SMILES) | melting point [°C]
COc1cc(C(=O)Cc2ccccc2)c([N+](=O)[O-])cc1OC | 152
Cc1cc[nH]n1 | 36.5
Nn1c(S)nnc1C(F)(F)F | 141
CC1C2Cc3ccc(O)cc3C1(C)CCN2CC1CC1 (stereo unspecified) | 202
C=C(Br)CC1(C(C)CC)C(=O)NC(=O)NC1=O (stereo unspecified) | 132
Brc1c(Br)c(Br)c(-c2c(Br)c(Br)c(Br)c(Br)c2Br)c(Br)c1Br | 375
CNC(=O)Oc1ccccc1OC(CCl)OC (stereo unspecified) | 80
N#CCc1ccc(OCc2ccc(Cl)c(Cl)c2)cc1 | 76 to 77
O=[N+]([O-])c1cccc2cn[nH]c12 | 187
N#CCC(=O)Nc1ccccc1 | 198 to 202
CCCCCCCCOc1ccc(C(=O)OC)cc1 | 35
CSc1nc2nc(C)cc(C)c2c(=O)[nH]1 | 242 to 244
Nc1ncn(C2OC(CO)C(O)C2O)c(=O)n1 (stereo unspecified) | 229
CCc1nc(NC(=O)NS(=O)(=O)c2cccs2)nc(Cl)c1C | 187 to 188
O=C(Nc1ccc(O)cc1)c1ccccc1O | 179
O=C1NCNC1(c1ccccc1)c1ccccc1 | 183
CC=NO | 45
COc1ccccc1-c1ccc(C=C2C(=O)OC(C)(C)OC2=O)o1 | 147
NCC[C@H](O)C(=O)O | 200 to 203
COc1ccc(-c2nnc3n2NC(c2ccc([N+](=O)[O-])cc2)S3)cc1 (stereo unspecified) | 209 to 211
O=C(Cl)c1nnc(-c2ccccc2)o1 | 80 to 90
FC(=C(F)C(F)(F)F)C(F)(F)F | -129
CC(=O)Oc1nc(C2CCCCC2)nn1-c1ccccc1 | 108
O=C(c1ccc(-c2ccccc2)cc1)c1ccc(-c2ccccc2)cc1 | 238
CNC(=O)NC | 108
CC(=O)Oc1nc(CCc2ccccc2)nn1-c1ccccc1 | 109

Structure (SMILES) | melting point [°C]
CC=CC=CC=CC=O | 56.8
N#CCC(=O)c1ccc(OC(F)(F)F)cc1 | 82 to 84
O=CN(c1ccccc1)c1ccccc1 | 73.5
COC(=O)c1cc(N)cc(O)c1 | 124 to 126
CCCCCCl | -60
Cc1nc(N)nc(O)c1Br | 244 to 246
Cc1cc2occc(=O)c2cc1Cl | 171
Cc1cc(S(=O)(=O)Cc2ccc(N)cc2)c(C)cc1Cl | 156 to 158
CCCCCCCc1ccc(O)cc1 | 26.5
CC(C)SC(C)C | -78.1
O=C(OCC(COC(=O)c1cccnc1)(COC(=O)c1cccnc1)COC(=O)c1cccnc1)c1cccnc1 | 162
COC(=O)c1ccc(-c2cccs2)nc1 | 117 to 118
CCCCCCCCBr | -55
CCCCC(CC)COC(=O)OOC(C)(C)C (stereo unspecified) | -50
CCCCc1c(C)nc(NC(=O)NS(=O)(=O)c2cccs2)nc1O | 200 to 201
CC12CCC(=O)C(O)=C1CCC1C2CCC2(C)C1CCC2(C)O (stereo unspecified) | 170
OCc1ccc2nonc2c1 | 66 to 67
COc1cc2c(cc1C)C(C#N)C2 (stereo unspecified) | 67
CCC(CCC(C)C1CCC2C3CC=C4CC(O)CCC4(C)C3CCC12C)C(C)C (stereo unspecified) | 147
CC(=CNNc1nc(C)cc(C)n1)c1ccccn1 | 142 to 145
CCC(C(=O)Nc1cccc2ccccc12)C1CCC(OC)CC1 (stereo unspecified) | 163
Oc1c2ccccc2cc2ccccc12 | 152
